This note sets out measurements from patent publication US6207671A, “Cycloalkano-pyridines” (Bayer Aktiengesellschaft, priority 1996, dated 2001).

One experiment has as its system HDL cholesterol. Briefly: In vivo activity: oral action on lipoproteins and triglycerides in hamsters (HDL rise). Details: species or system Syrian golden hamsters. As to conditions: dose 2 × 3 mg/kg, up to 24 hours. The method, then:
In experiments to determine the oral action on lipoproteins and triglycerides, test substance dissolved in DMSO and 0.5% Tylose suspended by means of a stomach tube are administered orally to Syrian golden hamsters from in-house breeding. To determine the CETP activity, blood (about 250 μl) is taken by retro-orbital puncture before the start of the experiment. The test substances are then administered orally by means of a stomach tube. The control animals receive identical volumes of solvents without test substance. The feed is then withdrawn from the animals and blood is taken at various times--up to 24 hours after substance administration--by puncture of the retro-orbital venous plexus. Clotting is ended by incubation at 4° C. overnight, then centrifugation at 6000×g is carried out for 10 minutes. In the serum thus obtained, the content of cholesterol and triglycerides is determined with the aid of modified commercially available enzyme tests (cholesterol enzymatic 14366 Merck, triglycerides 14364 Merck). Serum is suitably diluted using physiological saline solution.
100 μl of serum dilution are mixed with 100 μl of […] in 96-hole plates and incubated at room temperature for 10 minutes. The optical density is then determined at a wavelength of 492 nm using an automatic plate-reading apparatus. The triglyceride or cholesterol concentration contained in the samples is determined with the aid of a standard curve measured in parallel.
The determination of the content of HDL cholesterol is carried out according to the manufacturer's instructions after precipitation of the ApoB-containing lipoproteins by means of a reagent mixture (Sigma 352-4 HDL cholesterol reagent).

For experiment [1], the system named is lipoproteins and triglycerides. Briefly: In vivo activity in transgenic hCETP mice (lipoproteins and triglycerides). The following applies: 400 ppm in the feed, one week. How it is done:
Transgenic mice from in-house breeding (Dinchuck, Hart, Gonzalez, Karmann, Schmidt, Wirak; BBA (1995), 1295, 301) were administered the substances to be tested in the feed. Before the start of the experiment, blood was taken retro-orbitally from the mice in order to determine cholesterol and triglycerides in the serum. The serum was obtained as described above for hamsters by incubation at 4° C. overnight and subsequent centrifugation at 6000×g. After one week, blood was again taken from the mice in order to determine lipoproteins and triglycerides. The change in the parameters measured is expressed as a percentage change compared with the starting value.

The target in experiment [2] is T1, cholesterol ester transfer protein (CETP) (Homo sapiens, UniProt P11597).
T1 construct: CETP is obtained from human plasma in partially purified form; from tissue; host or cells: human plasma
T1 sequence (P11597 18-493): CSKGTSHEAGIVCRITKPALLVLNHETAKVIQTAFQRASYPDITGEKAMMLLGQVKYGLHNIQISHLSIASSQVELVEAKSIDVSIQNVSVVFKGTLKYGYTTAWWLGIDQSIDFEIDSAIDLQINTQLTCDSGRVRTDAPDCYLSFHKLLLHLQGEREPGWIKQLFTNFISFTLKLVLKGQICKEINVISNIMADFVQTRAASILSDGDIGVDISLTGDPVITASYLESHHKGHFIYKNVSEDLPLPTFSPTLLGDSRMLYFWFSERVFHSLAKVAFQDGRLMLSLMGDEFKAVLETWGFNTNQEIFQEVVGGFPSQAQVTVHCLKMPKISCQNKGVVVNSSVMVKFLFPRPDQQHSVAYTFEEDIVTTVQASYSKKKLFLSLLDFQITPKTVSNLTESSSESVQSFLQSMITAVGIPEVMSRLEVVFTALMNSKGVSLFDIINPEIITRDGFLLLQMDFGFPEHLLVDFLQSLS
Briefly: CETP inhibition test: transfer of 3H-cholesterol ester from human HD lipoproteins to biotinylated LD lipoproteins (SPA). Type of experiment: biochemical. As to conditions: human plasma CETP, 18 h, 37° C. The method, then:
CETP is obtained from human plasma in partially purified form by differential centrifugation and column chromatography and used for the test. To this end, human plasma is adjusted to a density of 1.21 g per ml using NaBr and centrifuged at 4° C. for 18 h at 50,000 rpm. The bottom fraction (d>1.21 g/ml) is applied to a Sephadex®phenyl-sepharose 4B (Pharmacia) column, washed with 0.15 M NaCl/0.001 M trisHCl pH 7.4 and then eluted with distilled water. The CETP-active fractions are pooled, dialysed against 50 mM Na acetate pH 4.5 and applied to a CM-Sepharose® (Pharmacia) column. The column is then eluted using a linear gradient (0-1 M NaCl). The pooled CETP fractions are dialysed against 10 mM trisHCl pH 7.4 and then further purified by chromatography on a Mono Q® column (Pharmacia).
50 ml of fresh human EDTA plasma are adjusted to a density of 1.12 using NaBr and centrifuged at 50,000 rpm for 18 h at 4° C. in a Ty 65 rotor. The upper phase is used to obtain cold LDL. The lower phase is dialysed against 3×4 l of PDB buffer (10 mM tris/HCl pH 7.4, […] NaCl, 1 mM EDTA, 0.02% NaN3). 20 μl of ^3 H-cholesterol (Dupont NET-725; 1 μC/μl dissolved in ethanol) are then added per 10 ml of retentate volume and the mixture is incubated under N2 at 37° C. for 72 h.
The mixture is then adjusted to the density 1.21 using NaBr and centrifuged at 20° C. for 18 h at 50,000 rpm in the Ty 65 rotor. The upper phase is recovered and the lipoprotein fractions are purified by gradient centrifugation. To this end, the isolated, labelled lipoprotein fraction is adjusted to a density of 1.26 using NaBr. Each 4 ml of this solution are covered with a layer of 4 ml of a solution of density 1.21 and 4.5 ml of a solution of 1.063 (density solutions from PDB buffer and NaBr) in centrifuge tubes (SW 40 rotor) and then centrifuged in the SW 40 rotor for 24 h at 38,000 rpm and 20° C. The intermediate layer lying between the densities 1.063 and 1.21 and containing the labelled HDL is dialysed at 4° C. against 3×100 volumes of PDB buffer.
The retentate contains radiolabelled ^3 H-CE-HDL which, adjusted to about 5×10^6 cmp per ml, is used for the test.
To test the CETP activity, the transfer of ^3 H-cholesterol ester from human HD lipoproteins to biotinylated LD lipoproteins is measured.
The reaction is ended by addition of streptavidin-SPA®beads (Amersham) and the transferred radioactivity is determined directly in a liquid scintillation counter.
In the test mixture, 10 μl of HDL-^3 H-cholesterol ester (~50,000 cpm) are incubated at 37° C. for 18 h with 10 μl of biotin-LDL (Amersham) in 50 mM Hepes/0.15 M NaCl/0.1% bovine serum albumin/0.05% NaN3 pH 7.4 with 10 μl of CETP (1 mg/ml) and 3 μl of solution of the substance to be tested (dissolved in 10% DMSO/1% RSA). 200 μl of the SPA-streptavidin bead solution (TRKQ 7005) are then added, the mixture is incubated further for 1 h with shaking and then measured in the scintillation counter. As controls, corresponding incubations with 10 μl of buffer, 10 μl of CETP at 4° C. and 10 μl of CETP at 37° C. are used.
The activity transferred into the control mixtures with CETP at 37° C. is rated as 100% transfer. The substance concentration at which this transfer is reduced by half is indicated as the IC50 value.

pIC50: −log10 of the molar value.

The term pIC50 denotes −log10 of the IC50, conventionally taken in molar units. A lower pIC50 goes with a large IC50.

`CC1Cc2nc(C3CCCC3)c(C(F)c3ccc(C(F)(F)F)cc3)c(-c3ccc(F)cc3)c2C(O)C1` (single isomer, unassigned) [Example 76]: the “% HDL rise” value in the experiment with HDL cholesterol was “+15.81%”. In experiment [1], the “HDL (percentage change compared with the starting value)” value was “+31.25%”, the “LDL (percentage change compared with the starting value)” value is -15.3% and the “Triglycerides (percentage change compared with the starting value)” value is -11.7%. The compound also showed a pIC50 in experiment [2] of 8.22.
